Data: patent publication US20020028809A1 (SUNTORY LIMITED, priority 1999, published 2002)
Like-named read-outs stand apart in the source and are kept apart here.

What was measured:
[1] = biological target: T1, α1β1γδ subtype of nicotinic acetylcholine receptors (Rattus norvegicus, UniProt P18916+P25108+P25109+P25110); test: Binding assays at α1β1γδ subtype of nicotinic acetylcholine receptors ([3H]-α-bungarotoxin, rat muscle extract); details: for remaining activity at 100 µM / remaining activity at 1000 µM: read-out: control % of [3H]-α-Bgt binding
T1 construct: Native receptor, no construct: "Triton X100 (2% w/v) was added
Excerpt: (§1) Methods for evaluating binding capabilities of the compounds at nicotinic acetylcholine receptors are different by subtypes of receptors. Binding capabilities of the compounds at α4β2 nicotinic acetylcholine receptors are examined using rat brain membrane obtained from whole homogenized brain, and determining the inhibiting rate of the compounds against [^3H]-cytisine binding to said brain membrane. Furthermore, the binding capabilities of the compounds at α1β1γδ nicotinic acetylcholine receptors are examined using homogenized rat muscle, and determining the inhibiting rate of the compounds against [^3H]-α-bungarotoxin binding to said muscle homogenate.
Binding Assays at α1β1γδ Subtype of Nicotinic Acetylcholine Receptors
Affinity of the compounds of the present invention to α1βγδ subtype of nicotinic acetylcholine receptors was measured by the following method, which was modified method described by Garcha H. S., Thomas P., Spivak C.
(1) Preparation of Rat Skeletal Muscles Containing α1β1γδ Subtype of Nicotinic Acetylcholine Receptors
The substantially same animals described in the Biological Experiment 1 were used.
Isolation of α1β1γδ subtype of nicotinic acetylcholine receptors was performed as follow. That is, rat posterior skeletal muscles were isolated just after sacrificed by decapitation, washed with ice-cooled saline solution and then frozen at −80° C. with liquid nitrogen and stored till using. After thawing the frozen muscles, tissue was homogenized (40% w/v) with buffer solution [2.5 mM of sodium phosphate buffer (pH:7.2), 90 mM of NaCl, 2 mM of KCl, 1 mM of EDTA, 2 mM of benzamidine, 0.1 mM of benzethonium chloride, […], 0.01% of sodium azide] in Waring blender (Waring blender 34BL97; WARING PRODUCTS DIVISION DYNAMICS CORPORATION OF AMERICA) for 60 seconds. The homogenate were centrifuged under 20,000×G for 60 minutes at 4° C. The supernatant was separated and the resulting pellet was added to the same buffer (1.5 ml/g wet weight), and homogenized under the same conditions. Triton X100 (2% w/v) was added and the mixture was stirred for 3 hours at 4° C. The centrifugation at 100,000×G for 60 minutes at 4° C. yielded the rat muscle extract as supernatant. This was stored at 4° C. for up to 4 weeks, and used for binding assays at receptors.
(2) Experiments of α1β1γδSubtype of Nicotinic Acetylcholine Receptors Binding
Receptors binding experiments were performed as follow. That is, the extract of rat muscle containing 600-900 μg of protein was added to test tubes containing test compounds and incubated for 15 minutes at 37° C. Then, to this mixture was added 1 nM of [^3H]-α-bungarotoxin (α-Bgt) and further incubated for 2 hours. The samples were isolated by vacuum filtration onto Whatman GF/B filters, which were prerinsed with 0.5% polyethylenimine just prior to sample filtration, using Brandel multi manifold cell harvester. The filters were rapidly rinsed with washing solution (10 mM of KH2PO4, 150 mM of NaCl, pH 7.2, room temperature) (5×1 ml). The filters were counted in 3 ml of clearsol I (Nacalai Tesque Inc.). Determination of nonspecific binding was incubated in the presence of 1 μM α-Bgt.
In the receptor binding experiments, said buffer solution was added for adjusting the final concentration of BSA to be 0.05%.
Analyses of the experimental results were conducted by the same way as described in the Biological Experiment 1.

[2] = biological target: T2, α4β2 subtype of nicotinic acetylcholine receptors (Rattus norvegicus, UniProt P09483+P12390); test: Binding assays at α4β2 subtype of nicotinic acetylcholine receptors ([3H]-cytisine, rat brain membrane)
T2 construct: examined using rat brain membrane obtained from whole homogenized brain; from tissue; host or cells: whole brain of Fischer-344 male rats, membrane pellet
Excerpt: as §1
Binding assays at α4β2 Subtype of Nicotinic Acetylcholine Receptors
(1) Preparation of Rat Brain Membrane Containing α4β2 Subtype of Nicotinic Acetylcholine Receptors
Rats were housed in the breeding cage controlled of the room temperature at 23±1° C., and the humidity of 55±5% for 1 to 4 weeks. Rats (3 to 4 rats per a cage) were housed with lights on for 12 hours daily (from 7:00 to 19:00), and allowed free access to food and water.
Preparation of rat brain membrane containing α4β2 subtype of nicotinic acetylcholine receptors was performed as follow. That is, rat brains were isolated just after sacrificed by decapitation, washed with ice-cooled saline solution and then frozen at −80° C. with liquid nitrogen and stored till using. After thawing the frozen brain, the brain was homogenized in 10 volumes of ice-cooled buffer solution (50 mM of Tris-HCl, 120 mM of NaCl, 5 mM of KCl, 1 mM of MgCl2, 2mM of CaCl2; pH 7.4; 4° C.) using homogenizer (HG30, Hitachi Kohki Ltd.) for 30 seconds, and the homogenate were centrifuged under 1,000×G for 10 minutes at 4° C. The resulting supernatant was separated and the pellet was homogenized again with half volume of aforementioned prior buffer solution and centrifuged under the same conditions. Combined supernatant was further centrifuged under 40,000×G for 20 minutes at 4° C. The pellet was suspended in buffer solution and used for binding assays at receptors.
(2) Experiments of α4β2 Subtype of Nicotinic Acetylcholine Receptors Binding
Suspensions of membrane pellets containing 400-600 μg of protein were added to test tubes containing test compounds and [^3H]-cytisine (2 nM) in a final volume of 200 μl and incubated for 75 minutes in ice-cooled bath. The samples were isolated by vacuum filtration onto Whatman GF/B filters, which were prerinsed with 0.5% polyethylenimine just prior to sample filtration, using Brandel multi manifold cell harvester. The filters were rapidly washed with buffer solution (3×1 ml). The filters were counted in 3 ml of clearsol I (Nacalai Tesque Inc.).
Analyses of the experimental results were conducted using the Accufit Competition Program (Beckman Ltd.).

[3] = rat brain membrane, [3H]-cytisine (2 nM), read-out: Affinities for receptors Ki α4β2

T1 sequence (P25108 21-457): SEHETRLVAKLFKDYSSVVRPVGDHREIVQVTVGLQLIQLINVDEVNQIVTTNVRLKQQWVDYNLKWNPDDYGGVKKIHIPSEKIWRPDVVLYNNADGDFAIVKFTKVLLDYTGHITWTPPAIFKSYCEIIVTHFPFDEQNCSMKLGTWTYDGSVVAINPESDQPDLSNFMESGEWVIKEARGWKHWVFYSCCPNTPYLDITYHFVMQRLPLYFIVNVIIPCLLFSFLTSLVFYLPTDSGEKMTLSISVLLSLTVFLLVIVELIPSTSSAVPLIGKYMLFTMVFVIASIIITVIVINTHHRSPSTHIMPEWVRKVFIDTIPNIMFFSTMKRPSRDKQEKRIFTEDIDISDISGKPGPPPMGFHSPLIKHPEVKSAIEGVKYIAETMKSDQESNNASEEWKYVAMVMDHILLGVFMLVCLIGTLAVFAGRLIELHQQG
T1 sequence (P25110 22-517): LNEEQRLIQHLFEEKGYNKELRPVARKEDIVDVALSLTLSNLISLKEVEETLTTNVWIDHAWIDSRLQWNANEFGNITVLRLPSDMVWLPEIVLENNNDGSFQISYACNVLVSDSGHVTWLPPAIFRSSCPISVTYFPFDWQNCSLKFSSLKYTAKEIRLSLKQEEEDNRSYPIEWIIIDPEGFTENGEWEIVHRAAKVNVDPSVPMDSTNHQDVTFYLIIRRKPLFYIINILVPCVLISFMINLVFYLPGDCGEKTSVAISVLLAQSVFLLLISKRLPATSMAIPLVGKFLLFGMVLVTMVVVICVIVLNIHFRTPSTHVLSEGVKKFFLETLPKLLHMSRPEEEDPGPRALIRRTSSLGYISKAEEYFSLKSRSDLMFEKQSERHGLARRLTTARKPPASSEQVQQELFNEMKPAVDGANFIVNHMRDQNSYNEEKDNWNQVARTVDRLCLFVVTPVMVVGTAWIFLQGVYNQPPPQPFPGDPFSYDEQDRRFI
T1 sequence (P25109 24-501): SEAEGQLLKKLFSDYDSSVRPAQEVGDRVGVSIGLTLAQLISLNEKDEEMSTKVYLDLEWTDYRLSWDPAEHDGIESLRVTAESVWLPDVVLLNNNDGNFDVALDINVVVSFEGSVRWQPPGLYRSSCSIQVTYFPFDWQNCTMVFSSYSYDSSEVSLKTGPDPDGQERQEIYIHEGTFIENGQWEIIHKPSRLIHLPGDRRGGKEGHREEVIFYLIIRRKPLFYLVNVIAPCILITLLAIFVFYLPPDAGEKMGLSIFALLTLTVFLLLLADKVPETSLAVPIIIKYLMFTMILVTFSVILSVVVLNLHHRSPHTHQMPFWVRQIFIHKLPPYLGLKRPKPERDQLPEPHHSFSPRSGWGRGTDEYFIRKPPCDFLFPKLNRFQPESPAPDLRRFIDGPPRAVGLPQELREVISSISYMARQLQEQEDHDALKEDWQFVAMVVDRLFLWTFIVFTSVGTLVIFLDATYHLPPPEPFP
T2 sequence (P09483 31-630): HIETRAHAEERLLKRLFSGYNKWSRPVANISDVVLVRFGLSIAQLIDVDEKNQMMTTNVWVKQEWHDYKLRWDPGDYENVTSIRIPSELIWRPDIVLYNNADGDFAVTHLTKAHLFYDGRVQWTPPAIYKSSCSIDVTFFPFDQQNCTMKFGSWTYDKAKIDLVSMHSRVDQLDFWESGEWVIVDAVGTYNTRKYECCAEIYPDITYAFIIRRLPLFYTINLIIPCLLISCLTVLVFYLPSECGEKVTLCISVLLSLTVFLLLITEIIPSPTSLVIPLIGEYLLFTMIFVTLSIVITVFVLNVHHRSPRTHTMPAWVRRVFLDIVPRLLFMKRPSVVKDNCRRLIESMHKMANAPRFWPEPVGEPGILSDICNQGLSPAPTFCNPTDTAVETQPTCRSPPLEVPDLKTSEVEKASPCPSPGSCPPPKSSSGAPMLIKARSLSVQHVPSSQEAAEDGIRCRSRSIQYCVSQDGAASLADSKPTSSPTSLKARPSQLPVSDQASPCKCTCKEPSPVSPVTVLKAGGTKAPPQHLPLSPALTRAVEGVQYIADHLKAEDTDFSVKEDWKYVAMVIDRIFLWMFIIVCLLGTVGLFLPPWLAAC
T2 sequence (P12390 25-500): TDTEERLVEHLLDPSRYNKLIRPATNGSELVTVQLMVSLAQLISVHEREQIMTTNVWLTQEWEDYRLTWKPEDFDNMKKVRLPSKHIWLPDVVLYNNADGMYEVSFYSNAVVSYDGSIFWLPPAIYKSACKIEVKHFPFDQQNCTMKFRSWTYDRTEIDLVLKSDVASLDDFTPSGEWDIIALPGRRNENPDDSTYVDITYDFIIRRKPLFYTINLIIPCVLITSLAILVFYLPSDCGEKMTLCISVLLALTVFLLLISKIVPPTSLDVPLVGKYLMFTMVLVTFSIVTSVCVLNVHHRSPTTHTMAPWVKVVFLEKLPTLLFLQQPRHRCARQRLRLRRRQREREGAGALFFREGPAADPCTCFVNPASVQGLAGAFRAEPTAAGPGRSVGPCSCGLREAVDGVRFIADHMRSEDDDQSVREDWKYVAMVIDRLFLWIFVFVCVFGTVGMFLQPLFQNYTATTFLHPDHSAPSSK

Row | Compound | Ki [1] [nM] | Ki [2] [nM] | remaining activity at 100 µM [1] [%] | remaining activity at 1000 µM [1] [%] | Ki [2, 3] [nM]
1 | CN1CCCC1c1cccnc1 (single isomer, unassigned; (-)) [Nicotine, (−)-nicotine, reference compound] | 182000 | – | – | – | –
2 | Cc1csc(=N)n1Cc1ccc(Cl)nc1 [Compound 2, 3-(6-chloro-3-pyridyl)methyl-2-imino-4-methyl-2,3-dihydrothiazole] | 12800 | 3.5 | – | – | –
3 | Cc1cn(Cc2ccc(Cl)nc2)c(=N)s1 [Compound 3, 3-(6-chloro-3-pyridyl)methyl-2-imino-5-methyl-2,3-dihydrothiazole] | – | 5.8 | 69 | 28 | –
4 | N=C1SCCN1Cc1cccnc1 [Compound 4, 2-imino-3-(3-pyridyl)methylthiazolidine] | – | 7.5 | 6 | 1 | –
5 | N=c1ncccn1Cc1ccc(Cl)nc1 [Compound 10, 1-(6-chloro-3-pyridyl)methyl-2-imino-1,2-dihydropyrimidine] | 347000 | 8.7 | – | – | –
6 | N=C1CCCCN1Cc1ccc(Cl)nc1 [Compound 15, 1-(6-chloro-3-pyridyl)methyl-2-iminopiperidine] | – | – | 21 | 4 | 4.8
7 | N=C1SCCCN1Cc1ccc(Cl)nc1 [Compound 17, 3-(6-chloro-3-pyridyl)methyl-2-imino-3,4,5,6-tetrahydro-2H-1,3-thiazine] | – | – | 68 | 23 | 520
8 | Cc1csc(=N)n1Cc1ccc(F)nc1 [Compound 18, 3-(6-fluoro-3-pyridyl)methyl-2-imino-4-methyl-2,3-dihydrothiazole] | 5800 | 10.8 | – | – | –
9 | Cc1sc(=N)n(Cc2ccc(Cl)nc2)c1C [Compound 20, 3-(6-chloro-3-pyridyl)methyl-2-imino-4,5-dimethyl-2,3-dihydrothiazole] | – | 7.56 | 96 | 45 | –
10 | CCc1csc(=N)n1Cc1ccc(Cl)nc1 [Compound 21, 3-(6-chloro-3-pyridyl)methyl-4-ethyl-2-imino-2,3-dihydrothiazole] | – | 21.7 | 57 | 19 | –
11 | N=c1ccc(Cl)cn1Cc1ccc(Cl)nc1 [Compound 22, 5-chloro-1-(6-chloro-3-pyridyl)methyl-2-imino-1,2-dihydropyridine] | – | 33.7 | 75 | 28 | –
12 | Cc1cccn(Cc2ccc(Cl)nc2)c1=N [Compound 23, 1-(6-chloro-3-pyridyl)methyl-2-imino-3-methyl-1,2-dihydropyridine] | – | 221 | 89 | 52 | –
13 | Cc1ccc(=N)n(Cc2ccc(Cl)nc2)c1 [Compound 24, 1-(6-chloro-3-pyridyl)methyl-2-imino-5-methyl-1,2-dihydropyridine] | – | 48.6 | 80 | 36 | –
14 | Cc1ccn(Cc2ccc(Cl)nc2)c(=N)c1 [Compound 25, 1-(6-chloro-3-pyridyl)methyl-2-imino-4-methyl-1,2-dihydropyridine] | – | 171 | 90 | 58 | –
15 | N=c1ccccn1Cc1cccnc1 [Compound 26, 2-imino-1-(3-pyridyl)methyl-1,2-dihydropyridine] | 41600 | 28.2 | – | – | –
16 | CC1CSC(=N)N1Cc1ccc(Cl)nc1 (centres unmarked) [Compound 27, 3-(6-chloro-3-pyridyl)methyl-2-imino-4-methylthiazolidine] | 16300 | 53.1 | – | – | –
17 | Cc1csc(=N)n1Cc1cncc(Br)c1 [Compound 30, 3-(5-bromo-3-pyridyl)methyl-2-imino-4-methyl-2,3-dihydrothiazole] | 22500 | 26.7 | – | – | –
18 | Cc1ccc(CN2CCSC2=N)cn1 [Compound 32, 2-imino-3-(6-methyl-3-pyridyl)methylthiazolidine] | 14600 | 10 | – | – | –
19 | Cc1cc(CN2CCSC2=N)on1 [Compound 35, 2-imino-3-(3-methyl-5-isoxazolyl)methylthiazolidine] | – | 41 | 12 | -3 | –
20 | Cc1cc(Cn2c(C)csc2=N)on1 [Compound 36, 2-imino-4-methyl-3-(3-methyl-5-isoxazolyl)methyl-2,3-dihydrothiazole] | – | 263 | 10 | 2 | –
21 | Cc1csc(=N)n1Cc1cnc(Cl)s1 [Compound 37, 3-(2-chloro-5-thiazolyl)methyl-2-imino-4-methyl-2,3-dihydrothiazole] | 22900 | 16.4 | – | – | –
22 | Cc1csc(=N)n1Cc1cnc(Cl)c(Cl)c1 [Compound 38, 3-(5,6-dichloro-3-pyridyl)methyl-2-imino-4-methyl-2,3-dihydrothiazole] | 65200 | 10.6 | – | – | –
23 | Cc1ccc(Cn2c(C)csc2=N)cn1 [Compound 39, 2-imino-4-methyl-3-(6-methyl-3-pyridyl)methyl-2,3-dihydrothiazole] | 10800 | 30.5 | – | – | –
24 | N=c1sc(-c2ccccc2)cn1Cc1ccc(Cl)nc1 [Compound 40, 3-(6-chloro-3-pyridyl)methyl-2-imino-5-phenyl-2,3-dihydrothiazole] | – | 355 | 71 | 35 | –
25 | N=c1scc(-c2ccccc2)n1Cc1ccc(Cl)nc1 [Compound 41, 3-(6-chloro-3-pyridyl)methyl-2-imino-4-phenyl-2,3-dihydrothiazole] | – | 32 | 79 | 30 | –
26 | N=c1scc(-c2ccc(Cl)cc2)n1Cc1ccc(Cl)nc1 [Compound 42, 4-(4-chlorophenyl)-3-(6-chloro-3-pyridyl)methyl-2-imino-2,3-dihydrothiazole] | – | 290 | 75 | 35 | –
27 | N=C1SCC(c2ccccc2)N1Cc1ccc(Cl)nc1 (centres unmarked) [Compound 43, 3-(6-chloro-3-pyridyl)methyl-2-imino-4-phenylthiazolidine] | 19900 | 37.1 | – | – | –
28 | N=c1ccc(-c2ccccc2)nn1Cc1cccnc1 [Compound 45, 3-imino-6-phenyl-2-(3-pyridyl)methyl-2,3-dihydropyridazine] | – | 143 | 18 | 6 | –
